Results published in patent US20260166039A1 (SCHRÖDINGER, INC., priority 2022, published 2026).
pIC50: −log10 of the molar value.

Tests used:
Wee1 kinase domain = molecular target: T1, Wee1 kinase domain (Homo sapiens, UniProt P30291); assay: Wee1 Kinase Biochemical Assay (ADP-Glo); conditions: class symbols; 1 nM Wee1 enzyme, 15 uM ATP, 4 hours at 25° C.
T1 construct: Wee1 kinase domain was purchased from Carna (catalog #05-177); purchased Carna 05-177
Outline: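 ADP-Glo luminescence readout of ADP produced by 1 nM kinase domain phosphorylating Poly(Lys,Tyr 4:1) (2 ng/mL) at 15 uM ATP. Reaction ran 4 h, 25 °C, in Tris/MgCl2 buffer with BSA and DTT. Inhibition scaled between DMSO (high) and saturating control inhibitor (low).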

[1] = test system: phosphorylation of Cdc2 Y15 (Wee1 substrate) in A427 cells; assay: Phosphorylated Cdc2 MSD Electrochemiluminescence Assay; type: cell-based; conditions: Homo sapiens, A-427, class symbols, read-out: A427 pCDC2 MSD IC50
Outline: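 Read-out: percent residual phospho-Cdc2 Y15 relative to DMSO and positive-control Wee1 inhibitor, measured by MSD electrochemiluminescence capture/detection antibody assay in cell lysates. A427 cells received duplicate 3-fold compound dilution series 20 h post-seeding, with 6 h total incubation at 37 °C.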

T1 sequence (P30291 299-569 limits assumed): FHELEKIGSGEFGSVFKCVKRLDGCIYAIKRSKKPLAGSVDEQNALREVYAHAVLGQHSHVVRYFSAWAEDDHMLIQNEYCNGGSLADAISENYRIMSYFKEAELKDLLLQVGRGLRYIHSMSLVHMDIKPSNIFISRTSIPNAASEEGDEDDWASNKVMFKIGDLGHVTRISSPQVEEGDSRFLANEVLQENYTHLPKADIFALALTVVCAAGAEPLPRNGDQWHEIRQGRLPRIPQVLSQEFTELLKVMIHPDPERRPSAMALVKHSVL

SMILES | pIC50 (Wee1 kinase domain) | pIC50 [1]
Cn1cc(Nc2ncc3c(n2)N(c2cccc(N=S(C)(C)=O)n2)[C@@H]2CC(C)(C)OC[C@]32C)cn1 (single isomer, unassigned) [Example 484] | > 8.00 | > 7.00
CN1CCC(c2cncc(Nc3ncc4c(n3)N(c3cccc(N=S(C)(C)=O)n3)[C@@H]3CC(C)(C)OC[C@]43C)c2)CC1 (single isomer, unassigned) [Example 485] | > 8.00 | 6.00 to 7.00
CN1CCN(c2cccc(Nc3ncc4c(n3)N(c3cccc(N=S(C)(C)=O)n3)[C@@H]3CC(C)(C)OC[C@]43C)c2)CC1 (single isomer, unassigned) [Example 486] | > 8.00 | > 7.00
CC1(C)C[C@H]2N(c3cccc(N=S(C)(C)=O)n3)c3nc(Nc4cnn(C(F)F)c4)ncc3[C@@]2(C)CO1 (single isomer, unassigned) [Example 487] | > 8.00 | 6.00 to 7.00
CC1(C)C[C@H]2N(c3cccc(N=S(C)(C)=O)n3)c3nc(Nc4cnn(C(F)(F)F)c4)ncc3[C@@]2(C)CO1 (single isomer, unassigned) [Example 488] | > 8.00 | 6.00 to 7.00
Cn1ncc(Nc2ncc3c(n2)N(c2cccc(N=S(C)(C)=O)n2)[C@@H]2CC(C)(C)OC[C@]32C)c1F (single isomer, unassigned) [Example 490] | > 8.00 | 6.00 to 7.00
Cc1ccc(Nc2ncc3c(n2)N(c2cccc(N=S(C)(C)=O)n2)[C@@H]2CC(C)(C)OC[C@]32C)cn1 (single isomer, unassigned) [Example 491] | > 8.00 | 6.00 to 7.00
Cc1cncc(Nc2ncc3c(n2)N(c2cccc(N=S(C)(C)=O)n2)[C@@H]2CC(C)(C)OC[C@]32C)c1 (single isomer, unassigned) [Example 492] | > 8.00 | > 7.00
CC1(C)C[C@H]2N(c3cccc(N=S(C)(C)=O)n3)c3nc(Nc4ccc(N5CCOCC5)nc4)ncc3[C@@]2(C)CO1 (single isomer, unassigned) [Example 493] | > 8.00 | 6.00 to 7.00
CC1(C)C[C@H]2N(c3cccc(N=S(C)(C)=O)n3)c3nc(Nc4ccc(N5CC6(CNC6)C5)cc4)ncc3[C@@]2(C)CO1 (single isomer, unassigned) [Example 494] | > 8.00 | 6.00 to 7.00
Cn1cc(Nc2ncc3c(n2)N(c2cccc(N=S(C)(C)=O)n2)[C@@H]2CC(C)(C)OC[C@]32C)ccc1=O (single isomer, unassigned) [Example 495] | > 8.00 | 5.00 to 6.00
CC1(C)CC2N(c3cccc(N=S(C)(C)=O)n3)c3nc(Nc4ccc(N5CCOCC5)cc4)ncc3C2(C)CO1 (single isomer, unassigned) [Example 496] | > 8.00 | 6.00 to 7.00
CC1(C)C[C@H]2N(c3cccc(N=S(C)(C)=O)n3)c3nc(Nc4ccc(N5C[C@@H]6C[C@H]5CO6)cc4)ncc3[C@@]2(C)CO1 (single isomer, unassigned) [Example 497] | > 8.00 | 6.00 to 7.00
CC1(C)C[C@H]2N(c3cccc(N=S(C)(C)=O)n3)c3nc(Nc4ccc(N5C[C@H]6C[C@@H]5CO6)cc4)ncc3[C@@]2(C)CO1 (single isomer, unassigned) [Example 498] | > 8.00 | 6.00 to 7.00
C[C@@H]1CN(c2ccc(Nc3ncc4c(n3)N(c3cccc(N=S(C)(C)=O)n3)[C@@H]3CC(C)(C)OC[C@]43C)cc2)CCN1C (single isomer, unassigned) [Example 499] | > 8.00 | > 7.00
C[C@H]1CN(c2ccc(Nc3ncc4c(n3)N(c3cccc(N=S(C)(C)=O)n3)[C@@H]3CC(C)(C)OC[C@]43C)cc2)CCN1C (single isomer, unassigned) [Example 500] | > 8.00 | > 7.00
CN1CCCN(c2ccc(Nc3ncc4c(n3)N(c3cccc(N=S(C)(C)=O)n3)[C@@H]3CC(C)(C)OC[C@]43C)cc2)CC1 (single isomer, unassigned) [Example 501] | > 8.00 | > 7.00
CN1CC[C@@H]2CN(c3ccc(Nc4ncc5c(n4)N(c4cccc(N=S(C)(C)=O)n4)[C@@H]4CC(C)(C)OC[C@]54C)cc3)C[C@@H]21 (single isomer, unassigned) [Example 502] | > 8.00 | > 7.00
CN1CC[C@H]2CN(c3ccc(Nc4ncc5c(n4)N(c4cccc(N=S(C)(C)=O)n4)[C@@H]4CC(C)(C)OC[C@]54C)cc3)C[C@H]21 (single isomer, unassigned) [Example 503] | > 8.00 | > 7.00
CC1(C)C[C@H]2N(c3cccc(N=S(C)(C)=O)n3)c3nc(Nc4ccc5nccn5c4)ncc3[C@@]2(C)CO1 (single isomer, unassigned) [Example 504] | > 8.00 | 6.00 to 7.00

SMILES | pIC50 (Wee1 kinase domain) | pIC50 [1]
CC1(C)C[C@H]2N(c3cccc(N=S(C)(C)=O)n3)c3nc(Nc4ccc(N5CCN6CCC[C@@H]6C5)cc4)ncc3[C@@]2(C)CO1 (single isomer, unassigned) [Example 505] | > 8.00 | 6.00 to 7.00
CN1[C@@H]2C[C@H]1CN(c1ccc(Nc3ncc4c(n3)N(c3cccc(N=S(C)(C)=O)n3)[C@@H]3CC(C)(C)OC[C@]43C)cc1)C2 (single isomer, unassigned) [Example 506] | > 8.00 | 6.00 to 7.00
Cn1cc(Nc2ncc3c(n2)N(c2cccc(N=S(C)(C)=O)n2)[C@@H]2CC(C)(C)OC[C@]32C)nn1 (single isomer, unassigned) [Example 514] | > 8.00 | 6.00 to 7.00
CN1C[C@H]2C[C@@H]1CN2c1ccc(Nc2ncc3c(n2)N(c2cccc(C4(O)COC4)n2)[C@@H]2CC(C)(C)OC[C@]32C)cc1 (single isomer, unassigned) [Example 517] | > 8.00 | 6.00 to 7.00
CN1C[C@@H]2C[C@H]1CN2c1ccc(Nc2ncc3c(n2)N(c2cccc(C4(O)COC4)n2)[C@@H]2CC(C)(C)OC[C@]32C)cc1 (single isomer, unassigned) [Example 518] | > 8.00 | 6.00 to 7.00
CN1C[C@@H]2C[C@H]1CN2c1ccc(Nc2ncc3c(n2)N(c2ccn(C)n2)[C@@H]2CC(C)(C)OC[C@]32C)cc1 (single isomer, unassigned) [Example 519] | > 8.00 | 6.00 to 7.00
CN1C[C@H]2C[C@@H]1CN2c1ccc(Nc2ncc3c(n2)N(c2ccn(C)n2)[C@@H]2CC(C)(C)OC[C@]32C)cc1 (single isomer, unassigned) [Example 520] | > 8.00 | 5.00 to 6.00
Cc1cc(Nc2ncc3c(n2)N(c2cccc([C@H]4CCCN4)n2)[C@@H]2CC(C)(C)OC[C@]32C)ccc1N1CCOCC1 (single isomer, unassigned) [Example 522] | > 8.00 | 6.00 to 7.00
CN(C)Cc1cccc(N2c3nc(Nc4ccc(N5CCOCC5)cc4)ncc3[C@@]3(C)COC(C)(C)C[C@@H]23)n1 (single isomer, unassigned) [Example 523] | > 8.00 | 6.00 to 7.00
CC1(C)C[C@H]2N(c3cccc([C@@H]4CCCN4)n3)c3nc(Nc4ccc(N5CCOCC5)cc4)ncc3[C@@]2(C)CO1 (single isomer, unassigned) [Example 526] | > 8.00 | 6.00 to 7.00
Cc1cc(Nc2ncc3c(n2)N(c2cccc([C@@H]4CCCN4)n2)[C@@H]2CC(C)(C)OC[C@]32C)ccc1N1CCOCC1 (single isomer, unassigned) [Example 529] | > 8.00 | 6.00 to 7.00
CC1(C)C[C@H]2N(c3cccc(C4CCNCC4)n3)c3nc(Nc4ccc(N5CCOCC5)cc4)ncc3[C@@]2(C)CO1 (single isomer, unassigned) [Example 531] | > 8.00 | 6.00 to 7.00
CN1CCC(c2cccc(N3c4nc(Nc5ccc(N6CCOCC6)cc5)ncc4[C@@]4(C)COC(C)(C)C[C@@H]34)n2)CC1 (single isomer, unassigned) [Example 533] | > 8.00 | 6.00 to 7.00
CN1CCN(c2cccc(N3c4nc(Nc5ccc(N6CCOCC6)cc5)ncc4[C@@]4(C)COC(C)(C)C[C@@H]34)n2)CC1 (single isomer, unassigned) [Example 535] | > 8.00 | 6.00 to 7.00
CN[C@@H](C)c1cccc(N2c3nc(Nc4ccc(N5CCOCC5)cc4)ncc3[C@@]3(C)COC(C)(C)C[C@@H]23)n1 (single isomer, unassigned) [Example 537] | > 8.00 | 6.00 to 7.00
CC1(C)C[C@H]2N(c3cccc([C@H]4CCNC4)n3)c3nc(Nc4ccc(N5CCOCC5)cc4)ncc3[C@@]2(C)CO1 (single isomer, unassigned) [Example 542] | > 8.00 | 6.00 to 7.00
CNC1(c2cccc(N3c4nc(Nc5ccc(N6CCOCC6)cc5)ncc4[C@@]4(C)COC(C)(C)C[C@@H]34)n2)CC1 (single isomer, unassigned) [Example 543] | > 8.00 | 6.00 to 7.00
CC1(C)C[C@H]2N(c3cccc(C4(F)CNC4)n3)c3nc(Nc4ccc(N5CCOCC5)cc4)ncc3[C@@]2(C)CO1 (single isomer, unassigned) [Example 545] | > 8.00 | 6.00 to 7.00
CN[C@H](C)c1cccc(N2c3nc(Nc4ccc(N5CCOCC5)cc4)ncc3[C@@]3(C)COC(C)(C)C[C@@H]23)n1 (single isomer, unassigned) [Example 549] | > 8.00 | > 7.00
CN[C@@H]1CCc2ccc(N3c4nc(Nc5ccc(N6CCOCC6)cc5)ncc4[C@@]4(C)COC(C)(C)C[C@@H]34)nc21 (single isomer, unassigned) [Example 553] | > 8.00 | 6.00 to 7.00
